Measurements from patent US20250277793A1, “COMPOSITIONS AND METHODS FOR CANCER DIAGNOSIS” (AOA Dx, priority 2020, published 2025).
Values joined by “and” are separate entries in the source; they are usually repeats but may differ in a detail not shown here. Equal entries are not always repeated.

How the values were obtained:
anti-GD2 mAbs = assay: Direct binding ELISA, GD2 versions with anti-GD2 antibody; set-up: species or system mouse; settings: antigen immobilized 10 ng/well, mAb 7 nM final; for OD(450 nm): individual replicate wells; for OD(450 nm) Average: mean of 3
Method: (§1) Native gangliosides (GD2 or GD3, Control), Tria-tri-GD2, Tria-tri-GD3, PAMAM-GD2, PAMAM-GD3, or the monomeric precursors AP-GD2 or AP-GD3 were immobilized onto polystyrene Corning Strip Well 96-well plates (10 ng/well). After bocking all wells with albumin (BSA), the wells were reacted for binding by anti-GD2 or […] (7 nM final) or with serum from mice vaccinated with PAMAM-GD2 (1:75 dilution). Secondary antibody used was horseradish peroxidase (HRP)-conjugated anti-mouse IgG (Sigma). BG=background control.

[1] = test system: serum from mice vaccinated with PAMAM-GD2; assay: Direct binding ELISA, GD2 versions with vaccinated mouse sera; settings: antigen 10 ng/well, serum 1:75 dilution; for OD(450 nm): individual replicate wells; for OD(450 nm) Average: mean of 3
Method: as §1

[2] = Water solubility of intermediate carbohydrates; format: physicochemical; settings: read-out: water soluble
Method: p-Aminophenylether-b-D-lactopyranoside (AP-Lac, from Toronto Research Chemicals) was used to enzymatically synthesize water soluble (>20 mg/ml) AP-GD2 and AP-GD3 intermediate carbohydrates. The synthesis of AP-GD2 included […] of AP-GD3 (4 mM), […] of UDP-GalNAc (5.4 mM), and 10.5 units of CgtA (construct CJL-30), 10 mM MnCl2 and 24 mM Hepes pH 7.0 in a final volume of 55 ml. The reaction mixture was incubated at 37° C. for 6.5 hr. Insoluble material was removed by centrifugation at 27,000 g for 15 min and the enzyme was removed by ultrafiltration using a 10 kDa membrane cut off. The filtrate was loaded on SepPak C18 5 g column (waters Corp) and the product was eluted with water while unidentified contaminants remained in the column. The product was further purified by anion exchange chromatography on HiTrapQ (GE Healthcare) using a gradient of 0-0.3 M NH4HCO3 and by size exclusion chromatography on a Superdex Peptide 10/300 GL column (GE Healthcare). The measured molecular weights of AP-GD2 (1,218 g/mol) and AP-GD3 (927 g/mol) correspond to expected values. Structures were verified by 1D and 2D NMR spectroscopy and mass spectrometry (EI-MS). […]

[3] = test system: antisera raised against PAMAM-GD3; assay: Direct binding ELISA, GD3 versions with vaccinated mouse sera; set-up: species or system mice; settings: antigen 10 ng/well, serum 1:75 dilution; for OD(450 nm): individual replicate wells; for OD(450 nm) Average: mean of 3
anti-GD3 mAbs = assay: Direct binding ELISA, GD3 versions with anti-GD3 antibody; set-up: species or system mouse; settings: antigen immobilized 10 ng/well, mAb 7 nM final; for OD(450 nm): individual replicate wells; for OD(450 nm) Average: mean of 3
Method: as §1

OD(450 nm) (anti-GD2 mAbs) | OD(450 nm) Average (anti-GD2 mAbs) | OD(450 nm) [1] | OD(450 nm) Average [1] | solubility [2] | OD(450 nm) (anti-GD3 mAbs) | OD(450 nm) Average (anti-GD3 mAbs) | OD(450 nm) (anti-GD2 mAbs; listed as Control) | SMILES | OD(450 nm) [3] | OD(450 nm) Average [3]
0.483 and 0.558 and 0.568 | 0.5363 | 0.694 and 0.587 and 0.635 | 0.6387 | > 20 mg/mL |  |  |  | CC(=O)NC1C(OC2C(CO)OC(OC3C(CO)OC(Oc4ccc(N)cc4)C(O)C3O)C(O)C2OC2(C(=O)O)CC(O)C(NC(C)=O)C([C@H](O)C(CO)OC3(C(=O)O)CC(O)C(NC(C)=O)C([C@H](O)[C@H](O)CO)O3)O2)OC(CO)C(O)C1O (stereo partly drawn) [AP-GD2, p-amino phenyl ether-GD2] |  | 
 |  |  |  | > 20 mg/mL | 0.483 and 0.558 and 0.568 | 0.5363 |  | CC(=O)NC1C(O)CC(OC2C(O)C(CO)OC(OC3C(CO)OC(Oc4ccc(N)cc4)C(O)C3O)C2O)(C(=O)O)OC1[C@H](O)C(CO)OC1(C(=O)O)CC(O)C(NC(C)=O)C([C@H](O)[C@H](O)CO)O1 (stereo partly drawn) [AP-GD3, p-amino phenyl ether-GD3] | 0.483 and 0.558 and 0.568 | 0.5363
 | 1.105 | 1.319 and 1.23 and 1.128 | 1.226 |  |  |  | 1.174 and 1.069 and 1.072 | CC/C=C/C(O)C(CO[C@@H]1OC(CO)[C@@H](O[C@@H]2OC(CO)[C@H](O[C@@H]3OC(CO)[C@H](O)C(O)C3NC(C)=O)C(O[C@]3(C(=O)O)CC(O)[C@@H](NC(C)=O)C([C@H](O)[C@@H](CO)O[C@]4(C(=O)O)CC(O)[C@@H](NC(C)=O)C([C@H](O)[C@H](O)CO)O4)O3)C2O)C(O)C1O)NC(=O)CC (stereo partly drawn) [GD2, reference compound] |  | 
 |  |  |  |  | 0.602 and 0.465 and 0.493 | 0.52 |  | CC/C=C/C(O)C(CO[C@@H]1OC(CO)[C@@H](O[C@@H]2OC(CO)[C@H](O)C(O[C@]3(C(=O)O)CC(O)[C@@H](NC(C)=O)C([C@H](O)[C@@H](CO)O[C@]4(C(=O)O)CC(O)[C@@H](NC(C)=O)C([C@H](O)[C@H](O)CO)O4)O3)C2O)C(O)C1O)NC(=O)CC (stereo partly drawn) [GD3, reference compound] | 0.646 and 0.534 and 0.555 | 0.5783
